Experimental data from US10246437B2, “Crystal form of neratinib maleate and preparation method therefor” (CRYSTAL PHARMATECH CO., LTD, priority 2015, dated 2019).
Values after ≈ are worked out from the molar mass of the structure shown. “Also recorded” adds a separate entry of the source. Where a name gives a salt, the structure may show the parent alone.

Assays:
[1] = Hygroscopicity by dynamic vapor sorption (DVS); assay type: physicochemical; details: DVS at 25° C., 80% RH; maleate
Method: Hygroscopicity of 10 mg of Form C of the present invention was tested using dynamic vapor sorption (DVS) at 25° C. […].
About hygroscopicity characterization description and definition of hygroscopicity (Chinese Pharmacopoeia 2010 edition appendix XIXJ Drug hygroscopic test guidelines, test at 25° C.+/−1° C., 80% Relative Humidity) • deliquescent: sufficient water is absorbed to form a liquid; • very hygroscopic: increase in mass is equal to or greater than 15 percent; • hygroscopic: increase in mass is less than 15 percent and equal to or greater than 2 percent; • slightly hygroscopic: increase in mass is less than 2 percent and equal to or greater than 0.2 percent. • no or almost no hygroscopic: increase in mass is less than 0.2%

[2] = Stability comparison: 1:1 mixed suspension of Form C and Form II stirred in solvent, solid tested by XRPD; assay type: physicochemical; details: nitromethane, 24 hours, Form C versus Form II
Method: 10.0 mg of maleate crystalline Form C and maleate crystalline Form II in CN101918390B were mixed at a ratio of 1:1 and added into 1.0 mL of solvent to obtain a suspension. The suspension was magnetically stirred at 500 rpm at 25° C. for 24 hours, and centrifuged to give a solid which was tested by XRPD.

[3] = Stability assessment on storage, XRPD patterns collected after storage; assay type: physicochemical; details: maleate
Method: Form B in the present invention were stored under 5° C., 25° C./60% relative humidity and 40° C./75% RH for 90 days. XRPD patterns were collected after storage.
Form C of the present invention was stored under 5° C., 25° C./60% RH and 40° C./75% relative humidity for 330 days. XRPD patterns were collected after storage.

[4] = Solubility comparison in pH 1.8 SGF and high purity water, saturated solutions determined by HPLC; assay type: physicochemical; details: for solubility at 1 h / solubility at 4 h / solubility at 24 h: thermodynamic from solid; for Solubility in comparison to maleate Form II in CN101918390B: pH 1.8 SGF and high purity water, after 1, 4 and 24 hours; for Solubility: maleate
Method: Maleate crystalline Form A, Form B of the present invention and maleate Form II in CN101918390B were added in pH 1.8 SGF (simulated gastric fluid), and in high purity water to obtain suspensions. Concentrations in the saturation solutions were determined after 1 hour, 4 hours and 24 hours by HPLC.

[5] = as disclosed in CN101918390B; cited from earlier work

CCOc1cc2ncc(C#N)c(Nc3ccc(OCc4ccccn4)c(Cl)c3)c2cc1NC(=O)/C=C/CN(C)C [Form C, (2E)-N-[4-[[3-chloro-4-[(pyridin-2-yl)methoxy]phenyl]amino]-3-cyano-7-ethoxyquinolin-6-yl]-4-(dimethylamino)but-2-enamide maleate]
weight increment under 80% Relative Humidity [1]: 1.01%
Stability comparison (form conversion in mixed suspension) ([2]; maleate): more stable than maleate crystalline Form II
Form Change ([3]; 5° C., 330 days): remains unchanged; also recorded: Form C doesn't change
Form Change ([3]; 25° C./60% RH, 330 days): remains unchanged; also recorded: Form C doesn't change
Form Change ([3]; 40° C./75% RH, 330 days): remains unchanged; also recorded: Form C doesn't change

CCOc1cc2ncc(C#N)c(Nc3ccc(OCc4ccccn4)c(Cl)c3)c2cc1NC(=O)/C=C/CN(C)C [Form A, (2E)-N-[4-[[3-chloro-4-[(pyridin-2-yl)methoxy]phenyl]amino]-3-cyano-7-ethoxyquinolin-6-yl]-4-(dimethylamino)but-2-enamide maleate]
solubility at 1 h ([4]; pH 1.8, simulated gastric fluid, pH 1.8 SGF, 1 h): > 8.4 mg/mL
solubility at 4 h ([4]; pH 1.8, simulated gastric fluid, pH 1.8 SGF, 4 h): > 8.4 mg/mL
solubility at 24 h ([4]; pH 1.8, simulated gastric fluid, pH 1.8 SGF, 24 h): > 8.4 mg/mL
Solubility in comparison to maleate Form II in CN101918390B [4]: higher solubility
solubility at 1 h ([4]; water, H2O (high purity water), 1 h): > 3.9 mg/mL
solubility at 4 h ([4]; water, H2O (high purity water), 4 h): > 3.9 mg/mL
solubility at 24 h ([4]; water, H2O (high purity water), 24 h): > 3.9 mg/mL

CCOc1cc2ncc(C#N)c(Nc3ccc(OCc4ccccn4)c(Cl)c3)c2cc1NC(=O)/C=C/CN(C)C [Form I]
Form conversion by absorbing moisture in the air [5]: can easily convert to Form II

CCOc1cc2ncc(C#N)c(Nc3ccc(OCc4ccccn4)c(Cl)c3)c2cc1NC(=O)/C=C/CN(C)C [Form B, (2E)-N-[4-[[3-chloro-4-[(pyridin-2-yl)methoxy]phenyl]amino]-3-cyano-7-ethoxyquinolin-6-yl]-4-(dimethylamino)but-2-enamide maleate]
Form Change ([3]; 5° C., 90 days): remains unchanged; also recorded: Form B doesn't change
Form Change ([3]; 25° C./60% RH, 90 days): remains unchanged; also recorded: Form B doesn't change
Form Change ([3]; 40° C./75% RH, 90 days): remains unchanged; also recorded: Form B doesn't change
Solubility ([4]; H2O (high purity water), 1 h): >5.4 mg/mL
Solubility ([4]; H2O (high purity water), 4 h): >5.4 mg/mL
Solubility ([4]; H2O (high purity water), 24 h): >5.4 mg/mL
Solubility in comparison to maleate Form II in CN101918390B [4]: higher solubility
Solubility ([4]; pH 1.8 SGF, 1 h): >6.7 mg/mL
Solubility ([4]; pH 1.8 SGF, 4 h): >6.7 mg/mL
Solubility ([4]; pH 1.8 SGF, 24 h): >6.7 mg/mL

CCOc1cc2ncc(C#N)c(Nc3ccc(OCc4ccccn4)c(Cl)c3)c2cc1NC(=O)/C=C/CN(C)C [Form II, reference compound]
Stability comparison (form conversion in mixed suspension) [2]: transferred to crystalline Form C
solubility at 1 h ([4]; simulated gastric fluid (SGF), simulated gastric fluid, pH 1.8 SGF, 1 h): 3.3 mg/mL (≈ 5.92 mM)
solubility at 4 h ([4]; simulated gastric fluid (SGF), simulated gastric fluid, pH 1.8 SGF, 4 h): 3.2 mg/mL (≈ 5.74 mM)
solubility at 24 h ([4]; simulated gastric fluid (SGF), simulated gastric fluid, pH 1.8 SGF, 24 h): 3.1 mg/mL (≈ 5.56 mM)
solubility at 1 h ([4]; H2O (high purity water), 1 h): 1 mg/mL (≈ 1.8 mM)
solubility at 4 h ([4]; H2O (high purity water), 4 h): 0.94 mg/mL (≈ 1.69 mM)
solubility at 24 h ([4]; H2O (high purity water), 24 h): 0.94 mg/mL (≈ 1.69 mM)
